Source: paper PMC7827406, “Structure–Activity Relationship (SAR) Study of Spautin-1 to Entail the Discovery of Novel NEK4 Inhibitors” (International Journal of Molecular Sciences, 2021)
Where two headings read alike, the source gives them in different places.

How the values were obtained:
Test in all cases: biochemical
Parameters in all cases: Eurofins KinaseProfiler full panel at Km ATP, residual kinase activity (%) relative to DMSO
PKBα(h) = target: T1, PKBα(h) (Homo sapiens, UniProt P31749)
T1 construct: gene AKT1
Outline: (§1)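 Radiometric kinase activity assays were run with ATP at Km and compounds at 10 µM, and remaining activity (%) was reported. A separate competitive binding screen measured DNA-tagged kinase displaced from immobilized active-site ligands by qPCR, giving percent kinase still bound at 10 µM compound in DMSO.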

NEK3(h) = target: T2, NEK3(h) (Homo sapiens, UniProt P51956)
T2 sequence (P51956 1-506): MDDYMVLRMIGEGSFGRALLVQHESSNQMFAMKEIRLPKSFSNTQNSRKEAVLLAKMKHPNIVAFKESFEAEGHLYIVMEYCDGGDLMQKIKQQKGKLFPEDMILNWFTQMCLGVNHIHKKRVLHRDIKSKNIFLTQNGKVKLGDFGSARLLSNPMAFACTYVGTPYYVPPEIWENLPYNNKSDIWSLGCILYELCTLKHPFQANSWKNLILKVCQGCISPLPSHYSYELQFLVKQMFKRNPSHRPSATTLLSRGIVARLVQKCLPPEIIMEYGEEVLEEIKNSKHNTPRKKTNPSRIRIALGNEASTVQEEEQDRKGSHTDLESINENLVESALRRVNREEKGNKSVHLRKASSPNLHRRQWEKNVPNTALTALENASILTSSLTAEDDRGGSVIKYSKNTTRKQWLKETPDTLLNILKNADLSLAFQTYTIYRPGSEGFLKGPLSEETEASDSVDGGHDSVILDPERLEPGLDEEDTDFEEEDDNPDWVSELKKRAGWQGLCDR
Outline: as §1

CDKL2(h) = target: T3, CDKL2(h) (Homo sapiens, UniProt Q92772)
T3 sequence (Q92772 1-493): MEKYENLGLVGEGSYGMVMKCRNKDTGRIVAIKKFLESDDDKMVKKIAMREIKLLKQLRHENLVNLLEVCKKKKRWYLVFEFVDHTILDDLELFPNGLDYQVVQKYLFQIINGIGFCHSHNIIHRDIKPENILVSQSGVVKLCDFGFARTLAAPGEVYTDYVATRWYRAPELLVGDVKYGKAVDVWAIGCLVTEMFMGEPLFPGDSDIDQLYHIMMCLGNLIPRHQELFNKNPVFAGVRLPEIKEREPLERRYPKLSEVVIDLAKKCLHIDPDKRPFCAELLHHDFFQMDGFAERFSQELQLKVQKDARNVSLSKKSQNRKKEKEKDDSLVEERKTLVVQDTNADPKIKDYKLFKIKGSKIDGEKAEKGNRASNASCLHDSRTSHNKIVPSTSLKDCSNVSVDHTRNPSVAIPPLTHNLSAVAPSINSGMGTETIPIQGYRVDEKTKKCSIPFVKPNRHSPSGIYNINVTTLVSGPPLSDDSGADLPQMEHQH
Outline: as §1

[1] = target: T4, PI3 Kinase (p110a(E545K)/p85a)(h) (Homo sapiens, UniProt P42336, E545K)
T4 construct: gene PIK3CA
Outline: as §1

Fms(Y969C)(h) = target: T5, Fms(Y969C)(h) (Homo sapiens, UniProt P07333, Y969C)
T5 construct: gene CSF1R
Outline: as §1

NEK7(h) = NEK7(h) (Homo sapiens, UniProt Q8TDX7)
Outline: as §1

GSK3α(h) = target: T6, GSK3α(h) (Homo sapiens, UniProt P49840)
T6 construct: gene GSK3A
Outline: as §1

FGFR2(N549H)(h) = FGFR2(N549H)(h) (Homo sapiens, UniProt P21802, N549H)
Outline: as §1

MEK1(h) = target: T7, MEK1(h) (Homo sapiens, UniProt Q02750)
T7 construct: gene MAP2K1
Outline: as §1

GCN2(h) = target: T8, GCN2(h) (Homo sapiens, UniProt Q9P2K8)
T8 construct: gene EIF2AK4
Outline: as §1

CHK2(R145W)(h) = target: T9, CHK2(R145W)(h) (Homo sapiens, UniProt O96017, R145W)
T9 construct: gene CHEK2
Outline: as §1

[2] = read-out: Residual activity (%) Spautin-1 5aa
[3] = read-out: Residual activity (%) 5as
[4] = read-out: Residual activity (%) 5at
[5] = read-out: Residual activity (%) 5ay

FGFR2(N549H)(h), sequence (P21802 whole entry N549H): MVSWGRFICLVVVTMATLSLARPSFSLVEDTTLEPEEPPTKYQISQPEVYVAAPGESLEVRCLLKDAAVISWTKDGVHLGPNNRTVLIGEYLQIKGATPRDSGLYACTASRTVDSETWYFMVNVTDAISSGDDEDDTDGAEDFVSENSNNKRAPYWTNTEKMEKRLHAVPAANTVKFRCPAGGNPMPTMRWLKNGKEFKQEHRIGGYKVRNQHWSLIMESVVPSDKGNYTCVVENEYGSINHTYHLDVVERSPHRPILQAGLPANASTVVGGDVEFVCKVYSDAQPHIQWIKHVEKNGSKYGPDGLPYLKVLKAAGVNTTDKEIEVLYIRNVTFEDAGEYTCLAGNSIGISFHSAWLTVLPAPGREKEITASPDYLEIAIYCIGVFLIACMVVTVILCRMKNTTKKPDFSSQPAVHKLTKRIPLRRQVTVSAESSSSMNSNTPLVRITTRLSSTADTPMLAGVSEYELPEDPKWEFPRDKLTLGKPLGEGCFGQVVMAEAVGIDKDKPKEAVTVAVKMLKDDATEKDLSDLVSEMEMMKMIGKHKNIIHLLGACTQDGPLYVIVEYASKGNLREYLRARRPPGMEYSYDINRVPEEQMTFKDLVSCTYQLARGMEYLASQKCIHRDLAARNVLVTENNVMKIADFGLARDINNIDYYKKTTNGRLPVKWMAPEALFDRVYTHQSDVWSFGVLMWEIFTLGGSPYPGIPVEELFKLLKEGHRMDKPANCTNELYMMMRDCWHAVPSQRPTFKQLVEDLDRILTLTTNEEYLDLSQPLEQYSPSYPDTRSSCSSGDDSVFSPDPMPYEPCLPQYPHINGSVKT
T1 sequence (P31749 whole entry): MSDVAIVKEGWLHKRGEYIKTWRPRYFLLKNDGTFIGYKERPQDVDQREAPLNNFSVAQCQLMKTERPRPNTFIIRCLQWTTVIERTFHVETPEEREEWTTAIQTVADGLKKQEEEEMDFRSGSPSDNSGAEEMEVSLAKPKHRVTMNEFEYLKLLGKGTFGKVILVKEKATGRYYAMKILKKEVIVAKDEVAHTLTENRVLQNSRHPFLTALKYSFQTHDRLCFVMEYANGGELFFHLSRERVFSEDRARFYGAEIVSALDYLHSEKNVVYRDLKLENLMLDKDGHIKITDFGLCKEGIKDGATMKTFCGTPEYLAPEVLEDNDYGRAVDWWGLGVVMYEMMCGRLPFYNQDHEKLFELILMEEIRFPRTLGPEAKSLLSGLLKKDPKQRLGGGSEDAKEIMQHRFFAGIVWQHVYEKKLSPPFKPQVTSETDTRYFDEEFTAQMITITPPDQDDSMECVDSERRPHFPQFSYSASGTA
T7 sequence (Q02750 whole entry): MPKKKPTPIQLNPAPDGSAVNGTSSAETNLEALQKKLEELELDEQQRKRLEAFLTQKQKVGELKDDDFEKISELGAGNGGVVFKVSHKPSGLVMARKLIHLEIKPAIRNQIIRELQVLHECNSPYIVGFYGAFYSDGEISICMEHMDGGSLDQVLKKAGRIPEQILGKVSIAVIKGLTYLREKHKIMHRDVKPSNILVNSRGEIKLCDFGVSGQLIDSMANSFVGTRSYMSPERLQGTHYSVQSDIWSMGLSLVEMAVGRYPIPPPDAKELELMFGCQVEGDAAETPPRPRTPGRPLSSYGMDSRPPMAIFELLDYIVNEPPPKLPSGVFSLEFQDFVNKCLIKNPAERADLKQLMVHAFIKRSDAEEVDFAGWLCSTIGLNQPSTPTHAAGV
T4 sequence (P42336 whole entry E545K): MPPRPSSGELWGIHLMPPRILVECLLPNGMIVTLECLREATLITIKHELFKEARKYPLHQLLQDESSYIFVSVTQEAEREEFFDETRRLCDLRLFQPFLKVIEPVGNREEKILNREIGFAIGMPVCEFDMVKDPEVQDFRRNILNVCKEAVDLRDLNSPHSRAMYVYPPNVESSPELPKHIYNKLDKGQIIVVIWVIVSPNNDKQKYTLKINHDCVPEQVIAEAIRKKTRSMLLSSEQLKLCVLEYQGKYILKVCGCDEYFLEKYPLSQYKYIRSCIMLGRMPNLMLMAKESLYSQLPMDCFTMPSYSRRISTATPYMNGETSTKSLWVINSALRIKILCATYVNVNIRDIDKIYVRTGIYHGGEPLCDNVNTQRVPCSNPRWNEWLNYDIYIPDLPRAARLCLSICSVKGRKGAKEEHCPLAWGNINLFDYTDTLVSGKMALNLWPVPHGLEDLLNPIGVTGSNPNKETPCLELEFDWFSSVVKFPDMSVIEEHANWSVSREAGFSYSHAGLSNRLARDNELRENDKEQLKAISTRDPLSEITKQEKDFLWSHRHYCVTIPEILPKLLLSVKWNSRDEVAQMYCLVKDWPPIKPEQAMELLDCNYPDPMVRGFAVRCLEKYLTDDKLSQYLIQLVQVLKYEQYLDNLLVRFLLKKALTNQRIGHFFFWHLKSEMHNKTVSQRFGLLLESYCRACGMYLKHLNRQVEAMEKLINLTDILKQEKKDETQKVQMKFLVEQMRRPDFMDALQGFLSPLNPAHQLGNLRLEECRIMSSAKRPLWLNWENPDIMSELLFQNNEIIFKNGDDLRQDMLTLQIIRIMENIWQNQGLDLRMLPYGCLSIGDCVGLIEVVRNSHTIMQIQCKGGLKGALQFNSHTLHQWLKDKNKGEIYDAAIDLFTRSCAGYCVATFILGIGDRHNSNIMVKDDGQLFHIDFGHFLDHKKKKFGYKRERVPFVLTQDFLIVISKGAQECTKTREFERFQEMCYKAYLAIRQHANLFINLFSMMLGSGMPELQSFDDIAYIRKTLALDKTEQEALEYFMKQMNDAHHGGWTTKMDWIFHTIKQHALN
T4 sequence (P27986 whole entry partner): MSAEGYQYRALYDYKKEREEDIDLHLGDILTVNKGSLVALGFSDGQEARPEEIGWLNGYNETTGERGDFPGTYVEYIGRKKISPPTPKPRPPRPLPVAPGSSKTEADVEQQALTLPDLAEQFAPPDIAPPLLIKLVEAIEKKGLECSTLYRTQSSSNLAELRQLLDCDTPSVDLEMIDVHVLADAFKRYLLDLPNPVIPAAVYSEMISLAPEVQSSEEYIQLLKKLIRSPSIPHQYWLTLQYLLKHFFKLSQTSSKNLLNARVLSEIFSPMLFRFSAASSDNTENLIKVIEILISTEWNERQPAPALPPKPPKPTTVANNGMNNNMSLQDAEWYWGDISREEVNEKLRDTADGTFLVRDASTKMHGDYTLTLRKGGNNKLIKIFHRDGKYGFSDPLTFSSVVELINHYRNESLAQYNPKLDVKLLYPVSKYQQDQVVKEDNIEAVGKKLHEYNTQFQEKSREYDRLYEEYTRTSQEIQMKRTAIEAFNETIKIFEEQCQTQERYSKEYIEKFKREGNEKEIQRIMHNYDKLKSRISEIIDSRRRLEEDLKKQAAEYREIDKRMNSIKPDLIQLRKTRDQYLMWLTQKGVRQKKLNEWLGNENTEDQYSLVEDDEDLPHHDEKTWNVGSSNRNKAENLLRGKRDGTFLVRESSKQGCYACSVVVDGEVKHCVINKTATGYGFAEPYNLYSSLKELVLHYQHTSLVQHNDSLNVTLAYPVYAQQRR
T5 sequence (P07333 whole entry Y969C): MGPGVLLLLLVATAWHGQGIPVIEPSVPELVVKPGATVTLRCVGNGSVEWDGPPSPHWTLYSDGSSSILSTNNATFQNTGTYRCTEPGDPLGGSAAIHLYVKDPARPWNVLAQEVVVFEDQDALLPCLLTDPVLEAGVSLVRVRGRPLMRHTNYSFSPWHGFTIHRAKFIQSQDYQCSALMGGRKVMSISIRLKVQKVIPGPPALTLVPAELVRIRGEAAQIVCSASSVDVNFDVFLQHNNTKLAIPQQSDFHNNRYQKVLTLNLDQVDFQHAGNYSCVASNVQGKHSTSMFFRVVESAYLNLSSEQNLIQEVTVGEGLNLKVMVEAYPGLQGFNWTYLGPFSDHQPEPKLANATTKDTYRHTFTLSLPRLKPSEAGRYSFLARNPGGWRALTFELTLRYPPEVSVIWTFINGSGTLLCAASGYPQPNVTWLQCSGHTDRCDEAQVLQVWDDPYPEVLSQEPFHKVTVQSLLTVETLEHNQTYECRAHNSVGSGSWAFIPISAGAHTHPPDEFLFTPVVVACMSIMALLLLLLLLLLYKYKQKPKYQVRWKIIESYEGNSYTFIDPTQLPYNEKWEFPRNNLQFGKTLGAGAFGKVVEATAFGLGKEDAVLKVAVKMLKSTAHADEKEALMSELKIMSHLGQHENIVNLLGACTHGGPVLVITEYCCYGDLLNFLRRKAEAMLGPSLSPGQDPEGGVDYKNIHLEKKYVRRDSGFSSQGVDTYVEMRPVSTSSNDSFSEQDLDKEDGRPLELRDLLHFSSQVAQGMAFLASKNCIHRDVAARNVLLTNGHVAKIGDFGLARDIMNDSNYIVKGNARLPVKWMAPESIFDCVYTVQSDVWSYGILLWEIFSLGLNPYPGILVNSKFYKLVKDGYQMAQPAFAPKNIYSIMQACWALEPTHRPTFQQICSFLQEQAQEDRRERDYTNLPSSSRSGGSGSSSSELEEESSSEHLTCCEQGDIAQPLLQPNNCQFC
NEK7(h), sequence (Q8TDX7 whole entry): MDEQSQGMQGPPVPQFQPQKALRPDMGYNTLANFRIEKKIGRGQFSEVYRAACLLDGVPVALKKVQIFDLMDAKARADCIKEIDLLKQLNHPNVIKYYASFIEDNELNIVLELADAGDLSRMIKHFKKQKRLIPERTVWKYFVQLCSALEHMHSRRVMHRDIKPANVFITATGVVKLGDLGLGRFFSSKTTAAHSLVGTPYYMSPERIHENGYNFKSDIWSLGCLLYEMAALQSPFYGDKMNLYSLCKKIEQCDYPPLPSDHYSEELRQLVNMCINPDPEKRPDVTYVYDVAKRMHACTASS

`Fc1ccc(CNc2ncnc3ccc(F)cc23)cc1` [5aa, 6-Fluoro-N-(4-fluorobenzyl)-4-Quinazolinamine] gave a remaining activity at 10 µM (PKBα(h); [2]) of 86%, a remaining activity at 10 µM (NEK3(h); [2]) of 71% and a remaining activity at 10 µM (CDKL2(h); [2]) of 87%. The remaining activity at 10 µM [1, 2] was 96%, the remaining activity at 10 µM (Fms(Y969C)(h); [2]) was 81% and the remaining activity at 10 µM (NEK7(h); [2]) was 95%. The remaining activity at 10 µM (GSK3α(h); [2]) was 93%, the remaining activity at 10 µM (FGFR2(N549H)(h); [2]) was 72% and the remaining activity at 10 µM (MEK1(h); [2]) was 91%. For the same compound, the remaining activity at 10 µM (GCN2(h); [2]) was 85% and the remaining activity at 10 µM (CHK2(R145W)(h); [2]) was 101%.
For `Fc1ccc(CCNc2ncnc3ccc(F)cc23)cc1` [5as, 6-Fluoro-N-[2-(4-Fluorophenyl)Ethyl]-4-Quinazolinamine], the remaining activity at 10 µM (PKBα(h); [3]) was 98%, the remaining activity at 10 µM (NEK3(h); [3]) was 80% and the remaining activity at 10 µM (CDKL2(h); [3]) was 103%. The remaining activity at 10 µM [1, 3] was 93%, the remaining activity at 10 µM (Fms(Y969C)(h); [3]) was 80% and the remaining activity at 10 µM (NEK7(h); [3]) was 74%. It also gave a remaining activity at 10 µM (GSK3α(h); [3]) of 101%, a remaining activity at 10 µM (FGFR2(N549H)(h); [3]) of 80% and a remaining activity at 10 µM (MEK1(h); [3]) of 84%. It also gave a remaining activity at 10 µM (GCN2(h); [3]) of 85% and a remaining activity at 10 µM (CHK2(R145W)(h); [3]) of 90%.
Compound `Fc1ccc2ncnc(NCCc3ccc(Cl)cc3)c2c1` [5at, N-[2-(4-Chlorophenyl)Ethyl]-6-Fluoro-4-Quinazolinamine] has a remaining activity at 10 µM (PKBα(h); [4]) of 89%, a remaining activity at 10 µM (NEK3(h); [4]) of 99% and a remaining activity at 10 µM (CDKL2(h); [4]) of 67%. The remaining activity at 10 µM [1, 4] was 91%, the remaining activity at 10 µM (Fms(Y969C)(h); [4]) was 78% and the remaining activity at 10 µM (NEK7(h); [4]) was 83%. It also gave a remaining activity at 10 µM (GSK3α(h); [4]) of 102%, a remaining activity at 10 µM (FGFR2(N549H)(h); [4]) of 68% and a remaining activity at 10 µM (MEK1(h); [4]) of 73%. The remaining activity at 10 µM (GCN2(h); [4]) was 97% and the remaining activity at 10 µM (CHK2(R145W)(h); [4]) was 91%.
`COc1ccc2ncnc(Nc3cccc(F)c3)c2c1` [5ay, N-(3-Fluorophenyl)-6-Methoxy-4-Quinazolinamine] was tested, and the remaining activity at 10 µM (PKBα(h); [5]) was 88%, the remaining activity at 10 µM (NEK3(h); [5]) was 87% and the remaining activity at 10 µM (CDKL2(h); [5]) was 67%. The remaining activity at 10 µM [1, 5] was 81%, the remaining activity at 10 µM (Fms(Y969C)(h); [5]) was 87% and the remaining activity at 10 µM (NEK7(h); [5]) was 76%. It also gave a remaining activity at 10 µM (GSK3α(h); [5]) of 69%, a remaining activity at 10 µM (FGFR2(N549H)(h); [5]) of 66% and a remaining activity at 10 µM (MEK1(h); [5]) of 93%. It also gave a remaining activity at 10 µM (GCN2(h); [5]) of 83% and a remaining activity at 10 µM (CHK2(R145W)(h); [5]) of 87%.
